Type in all cases: cell-based, human
Assay [1] has as its system THP-1 cell line. In words: Inflammation-related cytokines in the medium of PMA and LPS-induced THP-1 cells (ELISA). As to conditions: THP-1, 150 nm PMA and 0.1 µg/mL LPS, native GIP 1 µM, long-acting GIP derivative 0.1 µM or 1 µM, FIG. 2B. As for the experimental part:
Additionally, in order to measure the concentrations of the inflammation-related cytokines IL-6, IL-12/23 p40, IL-1β, and TNF-α in the medium of the THP-1 cell line, 150 nm of phorbol 12-myristate 13-acetate (PMA) and 0.1 µg/mL of LPS were added thereto to induce an inflammatory reaction, and the cells were treated with the native GIP and the long-acting GIP derivative: the native GIP was used at a concentration of 1 µM and the long-acting GIP derivative was diluted to a concentration of 0.1 µM or 1 µM. As the medium, Human IL-6 ELISA Kit (Abcam, US), Human IL-12/23 p40 ELISA Kit (Abcam, US), Human IL-1beta ELISA Kit (Abcam, US), and Human TNF alpha ELISA Kit (Abcam, US)were used for quantification.
Background: In an ELISA, binding on a coated surface is turned into a signal by an enzyme label.

In assay [2] the test system is THP-1 cell line. In words: Anti-inflammatory effect in LPS-induced THP-1 cells, mRNA level (qPCR). Conditions: THP-1, 1 µg/mL LPS; native GIP 10 µM, long-acting GIP derivative 1 or 10 µM; FIG. 2A. As for the experimental part: To confirm the anti-inflammatory effect of the long-acting GIP derivative on COPD in vitro, a human monocyte/macrophage cell line, THP-1, was used. Macrophages are known to induce the progression of inflammation by secreting cytokines and chemokines at the initial stage of infection and mobilizing other immune cells.
The THP-1 cell line was cultured in a RPMI 1640 medium supplemented with 10% fetal bovine serum (FBS), 100 µg/mL streptomycin, 100 U/mL penicillin, and 0.05 mM β-mercaptoethanol, at a temperature of 37 °C in 5% carbon dioxide conditions. An inflammatory response was induced by adding 1 µg/mL of lipopolysaccharide (LPS) to the cell line, and the effect on the inflammatory response by LPS when treated with native GIP and long-acting GIP derivatives was confirmed at the mRNA level. The native GIP was added at the concentration 10 µM, and the long-acting GIP derivative was diluted at a concentration of 1 or 10 µM and added. As the long-acting GIP derivative, the long-acting GIP conjugate (SEQ ID NO: 17) prepared in Example 3 was used.
RNA was isolated from the THP-1 cell line after the treatment was completed by using the RNeasy Mini Kit (Qiagen, US), and cDNA was synthesized using the iScript™ cDNA Synthesis Kit (Bio-rad, US). […]

In the next assay the test system is A549 cell line. In words: Inflammation and EMT in A549 cells treated with TGF-β1 and LPS (qPCR). Conditions: native GIP 10 µM, long-acting GIP derivative 1 or 10 µM. The procedure:
The A549 cell line, a human alveolar epithelial cell, was used to confirm the inflammatory and fibrosis amelioration effect of long-acting GIP derivatives on COPD in vitro. The purpose of this experiment was to determine the effect of alveolar epithelial cells on epithelial mesenchymal transition (EMT), which is known to be important in the pulmonary fibrosis process.
The A549 cell line was cultured in a F-12K medium supplemented with 10% fetal bovine serum (FBS), 100 µg/mL streptomycin, and 100 U/mL penicillin at a temperature of 37 °C and in 5% carbon dioxide conditions. Cell lines were sequentially treated with TGF-β1 and LPS to induce inflammatory responses and EMT. The native GIP was added at the concentration 10 µM, and the long-acting GIP derivative was diluted at a concentration of 1 or 10 µM and added. As the long-acting GIP derivative, the long-acting GIP conjugate (SEQ ID NO: 17) prepared in Example 3 was used.
RNA was isolated from the A549 cell line after the treatment was completed by using the RNeasy Mini Kit (Qiagen, US), and cDNA was synthesized using the iScript™ cDNA Synthesis Kit (Bio-rad, US). Regarding the synthesized cDNA, the expression level of inflammation and EMT-related genes was confirmed by using the QuantStudio 6 Flex Real-Time PCR System (Applied Biosystems, US). Delta Delta Ct method was used, and beta-actin was used as a housekeeping gene. […]
For orientation: Quantitative PCR measures a nucleic acid by following its amplification.

For “native GIP: hormone composed of 42 amino acids secreted from the K cells of the small intestine (YAEGTFISDYSIAMDKIHQQDFVNWLLAQKGKKNDWKHNITQ; Gastric inhibitory polypeptide; UniProt P09681 52-93, looked up)”, the “concentrations of the inflammation-related cytokines IL-6, IL-12/23 p40, IL-1β, and TNF-α in the medium” value with THP-1 cell line [1] is reported as “decreased”. The “relative expression levels of inflammation-related genes IL-6, IL-12, IL-1β, and TNF-α” value in the assay on THP-1 cell line [2] is recorded as “decreased”. Moreover, in the assay on A549 cell line (FIG. 3A), the “relative expression levels of inflammation-related genes IL-6, IL-12, and TNF-α” value was “significantly decreased”. Further, the “relative expression levels of EMT marker fibronectin, Col1α1, and Col3α1” value with A549 cell line (FIG. 3B) is listed as “decreased”.
